Data as given in patent US20210275514A1, “COMPOUNDS FOR USE IN TREATING KIDNEY DISORDERS” (Hoffmann-La Roche Inc., priority 2018, published 2021).
“Also recorded” adds a separate entry of the source.

Tests used:
Assay type in all cases: in vivo
db/db mice = assay: DKD mouse model; details: 30 mg/Kg once daily; for albuminuria (albumin to creatinine ratio): vs db/db vehicle
Procedure: B6.BKS^db/db and B6.BKS^db/+ mice were purchased from the Jackson laboratory. At the age of 14 weeks, mice started receiving vehicle or the ABCA1 inducer Cpd A (30 mg/Kg) by oral gavage once daily for 4 weeks. Body weight measurements and urine collection was performed every week. Mice were sacrificed at 18 weeks old, blood was collected and tissues were processed and analyzed as described below.
(§1) Spot urine samples were collected for all mice at baseline and time of sacrifice. Urinary albumin and creatinine were determined using an albumin ELISA kit (Bethyl laboratories) and a colorimetric assay for creatinine determination (Stanbio). Albuminuria was calculated and expressed as μg of albumin divided by mg of creatinine. For diabetic mouse model, weight and glycaemia were measured on a bi-weekly basis.
Kidney cortex sections were embedded in OCT for further analysis of immunofluorescent staining and lipid droplet. Specifically, for determination of podocyte number per glomerular cross-section was determined using 4 μm-thick tissue sections that were cut and stained with WT1 antibody (1:200, Santa Cruz) and prolong GOLD DAPI mounting media. Images were acquired with confocal microscopy using a Leica SP5 inverted microscope with the 40× wet objective. 20 glomeruli per mouse were quantified.
Electron microscopy. For transmission electron microscopy kidney cortex sections were placed in 4% paraformaldehyde, 1% gluteraldehyde in 0.1 M phosphate buffer (pH 7.4). Foot processes were quantified per 1 μm of the glomerular basement membrane.
(§2) Renal lipids species assays. Kidney cortex sections were snap frozen and utilized for lipid extraction and cholesterol content determination. The tissue was homogenized in 2 mM potassium phosphate buffer in a glass douncer on ice. Lipids in 100 μl homogenate (˜5-10 mg tissue) were extracted with 1 ml hexane:isopropanol (3:2) for two sequential 30-minute extractions. The solvent containing lipids was then dried in Nitrogen atmosphere. Lipids were then reconstituted using isopropanol: NP-40 (9:1) and cholesterol content was quantified using the Amplex red cholesterol assay kit (Invitrogen) according to the manufacturers protocol. Triglycerides in lipid extracts were assayed with a colorimetric kit according to manufacturer's instructions (Cayman). Total cholesterol and cholesterol esters were assayed using an enzymatic fluorometric method. For total cholesterol renal lipid extracts were diluted in assay buffer (100 mM potassium phosphate, 50 mM NaCl, 5 mM cholic acid, 0.1% […], pH 7.4) and incubated with same buffer supplemented with a final concentration of 1 U/ml cholesterol oxidase, 1 U/ml cholesterol esterase, 1 U/ml horseradish peroxidase, and 75 μM Amplex Red. The reactions were incubated at 37° C. for 30 min in a black opaque 96 well plate (Greiner) and fluorescence was measured in a microplate reader (Spectramax i3X, Molecular Devices) using 530 nm excitation and 580 emission.
(§3) Cholesterol esters were assayed using a direct method described by Mizoguchi et al (Mizoguchi, 2004). Briefly 150 μl of FC decomposition reagent (45 U/ml bovine catalase and 1 U/ml cholesterol oxidase, in assay buffer described above) was added to 25 μl of sample containing up to 1 mM total cholesterol. Free cholesterol was allowed to decompose overnight at 37° C. and then 75 μl of 4× cholesterol ester detection reagent (1 U/ml cholesterol oxidase, 4 U/ml cholesterol esterase, 24 U/ml horseradish peroxidase, 300 μM Amplex Red) was added. Reaction was incubated at 37° C. for 30 min and fluorescence was measured as described above for total cholesterol. 1 mM of cholesterol and 5 μM of cholesterol oleate standards were included as internal controls to validate assay sensibility and specificity.
Pathological evaluation. Kidney cortex sections were paraffin-embedded and cut at 4 μm thick for periodic acid-Schiff (PAS) and HE. […]

129 Col4a3 KO mice [1] = assay: Alport mouse model, late study of survival, treatment from 6 weeks of age; details: 100 mg/Kg/day oral gavage started in 6 weeks old mice
Procedure: (§4) 129 Col4a3^tm1/Dec/J mice were purchased from Jackson Labs and bred to generate Col4a3 KO mice. Mice were genotyped and selected using the primers: F ([…]), R ([…]) and Rm ([…]) in a PCR reaction (94 C for 5 min, followed by 30 cycles of 30 sec at 95 C, 15 sec at 60 C and 30 sec 72 C, and 1 min at 72 C). 129 Col4A3-KO mice were divided into two groups of 5 mice (males and females) each. At the age of 4 weeks, mice started receiving either vehicle or Cpd G (100 mg/Kg) by oral gavage once daily for 4 weeks. Body weight measurements and spot urine collection was performed once a week. Animals were sacrificed at the end of the treatment at the age of 8 weeks. A late study was also performed to evaluate if treatment of Col4A3-KO mice at time of established disease would prolong mice survival. In this study, mice were treated with Cpd G (100 mg/Kg/day) by daily oral gavage starting at 6 weeks of age and survival was assessed.

129 Col4a3 KO mice [2] = assay: Alport mouse model, treatment from 4 weeks of age
Procedure: as §4, §1
Lipid droplet staining Filtered Oil-Red O-Isopropanol solution (Electron Microscopy Science, PA) was diluted with water (6:4). 4 μm kidney sections were incubated with 100 μl freshly prepared Oil-Red O solution (ORO) for 15 minutes and counterstained with Hematoxylin Harris Hg Free (VWR, PA) to detect lipid deposition. Glomeruli staining was evaluated using a light microscope (Olympus BX 41, Tokyo, Japan).
as §2
as §3, with “specificity. […]” for “specificity.”

[3] = 100 mg/Kg once daily, 4 weeks from age 4 weeks, vs vehicle

SMILES | Blood urea nitrogen (BUN) (db/db mice; 4 weeks) | cholesterol esters in kidney cortex (db/db mice; 4 weeks) | mesangial expansion (PAS stained sections) (db/db mice; 4 weeks) | podocyte foot process effacement (TEM) (db/db mice; 4 weeks) | podocyte number (WT1 positive cells) (db/db mice; 4 weeks) | albuminuria (albumin to creatinine ratio) (db/db mice; after four weeks of treatment (18 weeks)) | albuminuria (albumin to creatinine ratio) (db/db mice; after two weeks of treatment (16 weeks)) | increased life span (129 Col4a3 KO mice [1]) [%] | progression to ESRD (129 Col4a3 KO mice [2]; 100 mg/Kg once daily, 4 weeks from age 4 weeks) | Albuminuria (129 Col4a3 KO mice [2]; [3]) | BUN (129 Col4a3 KO mice [2]; [3]) | Body weight loss (129 Col4a3 KO mice [2]; [3]) | mesangial expansion (PAS-stained kidney sections) (129 Col4a3 KO mice [2]; [3]) | serum creatinine (129 Col4a3 KO mice [2]; [3]) | lipid accumulation in kidney cortex sections (Oil-red O staining) (129 Col4a3 KO mice [2]; 8 week old mice, 28 days treatment) | cholesterol ester in kidneys (129 Col4a3 KO mice [2]; 8 week old mice, 28 days treatment, normalized to total protein)
O=C(N[C@@H]1CCCC[C@H]1O)c1ccc(OCC(F)(F)F)c(-c2ccc(Cl)c(Cl)c2)n1 [Cpd A, 6-(3,4-Dichlorophenyl)-N-[(1R,2R)-2-hydroxycyclohexyl]-5-(2,2,2-trifluoroethoxy)pyridine-2-carboxamide] | significantly improved | significant reduction | improved | improved | improved | even further reduction | reduction in albuminuria | – | – | – | – | – | – | – | – | –
O=C(N[C@@H]1CCCC[C@H]1O)c1cnc(OCC(F)(F)F)c(-c2ccc(Cl)c(Cl)c2)c1 [Cpd G, 5-(3,4-dichloro-phenyl)-N-((1R,2R)-2-hydroxy-cyclohexyl)-6-(2,2,2-trifluoro-ethoxy)-nicotinamide] | – | – | – | – | – | – | – | ~15 | delays progression to end stage renal disease; also recorded: delayed progression to ESRD | significantly less | significantly less | lost less weight | significantly less mesangial expansion | significantly less | reduced | reduces esterified cholesterol accumulation; also recorded: significantly reduced
